Measurements: PubChem BioAssay AID248 (DTP/NCI, 2004)
Where “and” joins values, the source holds several entries; their conditions need not be identical. Identical values can stand only once. Inconclusive results and toxic doses are left out. No stated cut-off is given here; in the data, active means T/C of 150% or more; inactive means T/C below 125%.

System: L1210 leukemia ip in BDF1 mice, survival T/C
Test: NCI In Vivo Anticancer Drug Screen. Data for tumor model L1210 Leukemia (intraperitoneal) in B6D2F1 (BDF1) mice
Conditions: endpoint: mean survival time, higher = longer survival
Summary of the method: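 Survival endpoint. Drug-treated group vs vehicle group, expressed as T divided by C. Tumor passaged by transplantation.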

[1] = dose: 100.0 mg/kg/injection, schedule: Q01DX001 (ip), vehicle: saline
[2] = dose: 200.0 mg/kg/injection, schedule: Q01DX001 (ip), vehicle: saline
[3] = dose: 400.0 mg/kg/injection, schedule: Q01DX001 (ip), vehicle: saline
[4] = dose: 100.0 mg/kg/injection, schedule: Q04DX003 (ip), vehicle: saline with Tween-80
[5] = dose: 100.0 mg/kg/injection, schedule: Q04DX003 (ip), vehicle: saline
[6] = dose: 200.0 mg/kg/injection, schedule: Q04DX003 (ip), vehicle: saline with Tween-80
[7] = dose: 200.0 mg/kg/injection, schedule: Q04DX003 (ip), vehicle: saline
[8] = dose: 400.0 mg/kg/injection, schedule: Q04DX003 (ip), vehicle: saline with Tween-80
[9] = dose: 100.0 mg/kg/injection, schedule: Q04DX002 (ip), vehicle: saline with Tween-80
[10] = dose: 50.0 mg/kg/injection, schedule: Q01DX009 (ip), vehicle: Klucel (hydroxypropylcellulose) (HPC)
[11] = dose: 100.0 mg/kg/injection, schedule: Q04DX003 (ip), vehicle: Klucel (hydroxypropylcellulose) (HPC)
[12] = dose: 100.0 mg/kg/injection, schedule: Q01DX009 (ip), vehicle: saline with Tween-80
[13] = dose: 200.0 mg/kg/injection, schedule: Q01DX009 (ip), vehicle: saline with Tween-80
[14] = dose: 400.0 mg/kg/injection, schedule: Q01DX009 (ip), vehicle: saline with Tween-80
[15] = dose: 25.0 mg/kg/injection, schedule: Q04DX002 (ip), vehicle: Klucel (hydroxypropylcellulose) (HPC)
[16] = dose: 50.0 mg/kg/injection, schedule: Q04DX002 (ip), vehicle: Klucel (hydroxypropylcellulose) (HPC)
[17] = dose: 100.0 mg/kg/injection, schedule: Q04DX002 (ip), vehicle: Klucel (hydroxypropylcellulose) (HPC)

Measured: T/C

O=C(O)C[CH2][Ge](=[O])[O][Ge](=[O])[CH2]CC(=O)O
inactive: dose: 100.0 mg/kg/injection, schedule: Q04DX002 (ip), vehicle: saline 100 % of control | dose: 200.0 mg/kg/injection, schedule: Q04DX002 (ip), vehicle: saline 103 % of control | dose: 400.0 mg/kg/injection, schedule: Q04DX002 (ip), vehicle: saline 103 % of control

CCCc1nnnn1C12CC3CC(CC(C3)C1)C2
inactive: [1] 102 % of control | [2] 100 % of control | [3] 93 % of control

O=C(NC1CCCCC1)C1C2CC3OC(=O)C1C3C2 (stereo not drawn)
inactive: [4] 101 % of control | [5] 104 % of control | [6] 97 % of control | [7] 98 % of control | [8] 101 % of control | dose: 400.0 mg/kg/injection, schedule: Q04DX003 (ip), vehicle: saline 104 % of control

COc1cc(-c2ccc(N)c(OC)c2)ccc1N
inactive: dose: 62.5 mg/kg/injection, schedule: Q01DX Z (ip), vehicle: saline 90 % of control | dose: 222.0 mg/kg/injection, schedule: Q01DX Z (ip), vehicle: methylcellulose (MC) 108 % of control | dose: 333.0 mg/kg/injection, schedule: Q01DX Z (ip), vehicle: methylcellulose (MC) 90 % of control

O=c1oc2ccccc2cc1P(=O)(O)O
inactive: dose: 50.0 mg/kg/injection, schedule: Q01DX001 (ip), vehicle: saline 91 % of control | [1] 95 % of control | [2] 95 % of control | [3] 97 % of control

O=C(NCCNC(=O)c1cccc([N+](=O)[O-])c1O)c1cccc([N+](=O)[O-])c1O
inactive: [4] 96 % of control | [6] 95 % of control | [8] 90 % of control

O=c1cccc(CCc2ccccc2)[nH]1
inactive: [1] 100 % of control | [2] 95 % of control | [3] 105 % of control

CCc1cccc(CC)c1NC(=S)NN
inactive: [9] 103 % of control

CCOCc1cccc2ccccc12
inactive: [4] 106 % of control | [6] 98 % of control | [8] 102 % of control

CN1COC(OC(C)(C)C)C(C)(C)C1 (stereo not drawn)
inactive: dose: 100.0 mg/kg/injection, schedule: Q01DX001 (ip), vehicle: saline sonified 90 % of control | dose: 400.0 mg/kg/injection, schedule: Q01DX001 (ip), vehicle: saline sonified 95 % of control

Cc1nnnn1C1CCCCC1I (stereo not drawn)
inactive: dose: 10.0 mg/kg/injection, schedule: Q01DX001 (ip), vehicle: other 102 % of control | dose: 20.0 mg/kg/injection, schedule: Q01DX001 (ip), vehicle: other 88 % of control

CP(c1ccccc1)c1ccccc1
inactive: [10] 98 % of control | dose: 100.0 mg/kg/injection, schedule: Q01DX009 (ip), vehicle: Klucel (hydroxypropylcellulose) (HPC) 95 % of control | [11] 104 % of control | dose: 200.0 mg/kg/injection, schedule: Q04DX003 (ip), vehicle: Klucel (hydroxypropylcellulose) (HPC) 114 % of control

CCCCCCCCCCSS(=O)(=O)O
inactive: dose: 100.0 mg/kg/injection, schedule: Q01DX001 (ip), vehicle: other 98 % of control | dose: 400.0 mg/kg/injection, schedule: Q01DX001 (ip), vehicle: other 86 % of control

N#C/C(=C/c1cc([N+](=O)[O-])c(O)c([N+](=O)[O-])c1)C(N)=O
inactive: dose: 75.0 mg/kg/injection, schedule: Q01DX001 (ip), vehicle: saline 96 % of control | dose: 150.0 mg/kg/injection, schedule: Q01DX001 (ip), vehicle: saline 98 % of control | dose: 300.0 mg/kg/injection, schedule: Q01DX001 (ip), vehicle: saline 95 % of control

CC1C(c2ccccc2)OCCN1C (stereo not drawn)
inactive: dose: 50.0 mg/kg/injection, schedule: Q04DX003 (ip), vehicle: saline 108 % of control | [1] 93 % of control | [5] 108 % of control | [2] 104 % of control | [7] 104 % of control

O=C1OC(=O)C2C3CC(C(Br)C3Br)C12 (stereo not drawn)
inactive: [4] 102 % of control | [6] 98 % of control | [8] 101 % of control

COc1ccc(/C=C2\N=C(c3cc(OC)c(OC)c(OC)c3)OC2=O)cc1Br
inactive: [12] 91 % of control | [13] 91 % of control | [14] 102 % of control

Cc1ccc(C(=O)c2ccccc2N)cc1C
inactive: dose: 100.0 mg/kg/injection, schedule: Q01DX001 (ip), vehicle: carboxymethylcellulose (CMC) 100 % of control | dose: 200.0 mg/kg/injection, schedule: Q01DX001 (ip), vehicle: carboxymethylcellulose (CMC) 116 % of control | dose: 400.0 mg/kg/injection, schedule: Q01DX001 (ip), vehicle: carboxymethylcellulose (CMC) 102 % of control

COc1ccccc1N1C(=O)CSC1=S
inactive: [12] 102 % of control | [13] 106 % of control | [14] 100 % of control

Cc1ccc2c(ccc3c[n+]4ccccc4c(C)c32)c1
inactive: dose: 12.5 mg/kg/injection, schedule: Q01DX001 (ip), vehicle: carboxymethylcellulose (CMC) 107 % of control | dose: 25.0 mg/kg/injection, schedule: Q01DX001 (ip), vehicle: carboxymethylcellulose (CMC) 96 % of control

O=C(O)c1cccc2cccc(C(=O)c3cccs3)c12
inactive: [4] 91 % of control | [6] 98 % of control | [8] 91 % of control

C[C@]12CC[C@@H]3c4ccccc4CC[C@H]3[C@@H]1CC[C@@H]2O
inactive: dose: 62.5 mg/kg/injection, schedule: Q01DX015 (sc), vehicle: steriod suspending solution 97 % of control | dose: 125.0 mg/kg/injection, schedule: Q01DX015 (sc), vehicle: steriod suspending solution 101 % of control | dose: 250.0 mg/kg/injection, schedule: Q01DX015 (sc), vehicle: steriod suspending solution 100 % of control | dose: 500.0 mg/kg/injection, schedule: Q01DX015 (sc), vehicle: steriod suspending solution 100 % of control

Cc1nn[nH]n1
inactive: [1] 119 % of control | [2] 105 % of control | [3] 105 % of control

Cc1ccc(NC(=O)Nc2cc(C)on2)c([N+](=O)[O-])c1
inactive: dose: 25.0 mg/kg/injection, schedule: Q04DX003 (ip), vehicle: Klucel (hydroxypropylcellulose) (HPC) 96 % of control | dose: 50.0 mg/kg/injection, schedule: Q04DX003 (ip), vehicle: Klucel (hydroxypropylcellulose) (HPC) 96 % of control | [11] 100 % of control and 91 % of control

O=[N+]([O-])c1ccc(-c2nnc(-c3ccccc3O)o2)cc1
inactive: dose: 50.0 mg/kg/injection, schedule: Q04DX002 (ip), vehicle: saline with Tween-80 92 % of control | [9] 89 % of control | dose: 200.0 mg/kg/injection, schedule: Q04DX002 (ip), vehicle: saline with Tween-80 89 % of control | dose: 400.0 mg/kg/injection, schedule: Q04DX002 (ip), vehicle: saline with Tween-80 89 % of control

CC(C)=CCC(N)C(C)c1ccccc1 (stereo not drawn)
inactive: dose: 12.5 mg/kg/injection, schedule: Q01DX009 (ip), vehicle: Klucel (hydroxypropylcellulose) (HPC) 96 % of control | dose: 25.0 mg/kg/injection, schedule: Q01DX009 (ip), vehicle: Klucel (hydroxypropylcellulose) (HPC) 98 % of control | [15] 94 % of control | [10] 104 % of control | [16] 105 % of control | [17] 102 % of control

O=C(Nc1ccccc1)c1cc(Cl)ccc1O
inactive: [12] 95 % of control | [4] 86 % of control | [13] 95 % of control | [6] 94 % of control | [14] 95 % of control | [8] 87 % of control

O=C(COc1ccccc1C(=O)O)Nc1ccccc1
inactive: [15] 114 % of control | [16] 92 % of control | [17] 96 % of control
